Measurements published in the CheMixHub ionic liquid set.

Assay: xn = mol fraction of the nth substance listed

CC[n+]1ccccc1.[Cl-] + CCCC[n+]1ccccc1.[Br-]
viscosity [mPa·s], 101 kPa
Details	x1 = 0.118	x1 = 0.197	x1 = 0.318	x1 = 0.384	x1 = 0.492	x1 = 0.585	x1 = 0.686	x1 = 0.81	x1 = 0.902
373.1 K	–	–	–	61	54.1	48.8	43.7	38	–
378.1 K	–	–	53.6	50.2	44.7	40.6	36.5	32	–
383.1 K	53.8	49.7	44	41.4	37.1	33.8	30.6	27.1	–
388.1 K	44	40.8	36.4	34.3	31	28.4	25.8	23	20.9
393.1 K	36.2	33.7	30.3	28.6	26	24	21.9	19.7	18
398.1 K	30	28.1	25.4	24.1	22	20.4	18.8	17	15.59
403.1 K	25.1	23.6	21.5	20.5	18.8	17.5	16.19	14.73	13.59
408.1 K	21.2	20.1	18.4	17.5	16.2	15.19	14.08	12.9	11.96
413.1 K	18.2	17.2	15.87	15.16	14.1	13.27	12.36	11.39	10.58
418.1 K	15.69	14.92	13.82	13.25	12.37	11.7	10.93	10.12	9.43
423.1 K	13.69	13.06	12.15	11.69	10.96	10.4	9.75	9.08	8.49
428.1 K	12.07	11.55	10.79	10.4	9.79	9.32	8.77	8.21	7.68
433.1 K	10.76	10.32	9.68	9.35	8.83	8.44	7.96	7.48	7.02
438.1 K	9.69	9.31	8.77	8.48	8.04	7.7	7.29	6.88	6.46
443.1 K	8.82	8.5	8.03	7.78	7.39	7.11	6.74	6.38	6

CCCCCCCCCCCCCC[P+](CCCCCC)(CCCCCC)CCCCCC.[c-]1nc[nH]n1 + CCCCCC[n+]1ccn(C)c1.O=S(=O)([N-]S(=O)(=O)C(F)(F)F)C(F)(F)F
viscosity [mPa·s], 100 kPa
Details	278.15 K	283.15 K	288.15 K	293.15 K	298.15 K	303.15 K	308.15 K	313.15 K	318.15 K	323.15 K
x2 = 0.1	5162	3302	2162	1458	1013	720	524	389	296	229
x2 = 0.195	4777	3062	2000	1349	930	664	484	359	273	211
x2 = 0.282	4094	2612	1719	1162	810	579	422	314	239	185
x2 = 0.378	3093	1992	1317	900	633	456	337	253	194	152
x2 = 0.493	2209	1445	970	677	485	355	267	204	159	127
x2 = 0.6	1397	940	641	452	329	245	186	145	115	93
x2 = 0.693	910	619	431	308	227	171	132	104	83	67
x2 = 0.792	612	424	301	220	165	127	99	79	64	53
x2 = 0.893	325	235	174	132	103	81	65	54	–	–

CCC(O)CO (stereo unspecified) + CCCC[N+](C)(C)C.O=S(=O)([N-]S(=O)(=O)C(F)(F)F)C(F)(F)F
Details	viscosity [mPa·s]
328.15 K, 101 kPa, x1 = 1	10.3

CCS(=O)(=O)[O-].[NH4+] + CC(=O)[O-].CC[n+]1ccn(C)c1
101 kPa
Details	electrical conductivity [S/m]	viscosity [mPa·s]
313.15 K, x1 = 0.1701	0.38	112.1
318.15 K, x1 = 0.05	0.649	51.8
323.15 K, x1 = 0.0999	0.669	50.7
323.15 K, x1 = 0.1701	0.588	65.1

CCCC[n+]1ccc(C)cc1.N#C[S-] + O
101 kPa
Details	viscosity [mPa·s]
298.15 K, x2 = 0.0564	74.9
298.15 K, x2 = 0.9714	1.58
308.15 K, x2 = 0.6364	10.02
308.15 K, x2 = 0.9714	1.24
318.15 K, x1 = 0.0076	0.73
318.15 K, x2 = 0	33.9
318.15 K, x2 = 0.9714	1.01
328.15 K, x2 = 0.9028	1.71
328.15 K, x2 = 0.957	1.01
328.15 K, x2 = 0.9714	0.84
338.15 K, x2 = 0	17.3
338.15 K, x2 = 0.1655	12.9
338.15 K, x2 = 0.3797	8.38
338.15 K, x2 = 0.4628	7.17
338.15 K, x2 = 0.5669	5.54
338.15 K, x2 = 0.7623	2.94
338.15 K, x2 = 0.9714	0.73
348.15 K, x2 = 0.1655	9.89
348.15 K, x2 = 0.5669	4.45
348.15 K, x2 = 0.957	0.75

CC[n+]1ccn(C)c1.F[B-](F)(F)F + CC[n+]1ccn(C)c1.O=S(=O)([N-]S(=O)(=O)C(F)(F)F)C(F)(F)F
100 kPa, x2 = 0
Details	electrical conductivity [S/m]	viscosity [mPa·s]
243.15 K	0.026	–
248.15 K	0.043	–
253.15 K	0.066	308
258.15 K	0.096	–
263.15 K	0.135	152
268.15 K	0.184	–
273.15 K	0.243	85.2
278.15 K	0.313	–
283.15 K	0.395	52.4
288.15 K	0.488	–
293.15 K	0.594	34.6
298.15 K	0.712	–
303.15 K	–	24.2
313.15 K	–	17.8
323.15 K	–	13.5
333.15 K	–	10.6

C[N+]1(CCOCC[N+]2(C)CCCC2)CCCC1.O=S(=O)([N-]S(=O)(=O)C(F)(F)F)C(F)(F)F.O=S(=O)([N-]S(=O)(=O)C(F)(F)F)C(F)(F)F + CC[n+]1ccn(C)c1.N#C[N-]C#N + O=S(=O)([N-]S(=O)(=O)C(F)(F)F)C(F)(F)F.[Li+]
100 kPa, x1 = 0.1626, x2 = 0.7364
Details	electrical conductivity [S/m]
298 K	0.806
303 K	1.08
313 K	1.43
323 K	1.82
333 K	2.2
343 K	2.65

CC[n+]1ccn(C)c1.O=S(=O)([N-]S(=O)(=O)C(F)(F)F)C(F)(F)F + COC(=O)OC
viscosity [mPa·s], 101.3 kPa
Details	288.15 K	293.15 K	298.15 K	303.15 K	308.15 K	313.15 K
x1 = 0.00265	0.69	0.644	0.604	0.567	0.534	0.504
x1 = 0.005572	0.717	0.67	0.627	0.588	0.554	0.523
x1 = 0.006266	0.73	0.681	0.637	0.599	0.563	0.532
x1 = 0.006515	0.73	0.682	0.637	0.598	0.563	0.531
x1 = 0.008405	0.748	0.698	0.653	0.612	0.576	0.543
x1 = 0.01068	0.778	0.724	0.676	0.634	0.596	0.562
x1 = 0.01231	0.795	0.74	0.691	0.648	0.609	0.573
x1 = 0.01323	0.813	0.757	0.707	0.662	0.623	0.587
x1 = 0.01407	0.821	0.763	0.713	0.668	0.628	0.591
x1 = 0.01462	0.823	0.766	0.716	0.671	0.63	0.594
x1 = 0.01829	0.861	0.801	0.747	0.699	0.656	0.618
x1 = 0.01968	0.873	0.812	0.757	0.708	0.664	0.626
x1 = 0.02012	0.879	0.817	0.762	0.713	0.669	0.63
x1 = 0.02014	0.878	0.816	0.76	0.712	0.667	0.628
x1 = 0.02562	0.928	0.861	0.804	0.751	0.704	0.662
x1 = 0.03021	0.956	0.886	0.824	0.769	0.72	0.676
x1 = 0.03102	0.964	0.893	0.83	0.774	0.725	0.68
x1 = 0.03106	0.961	0.89	0.828	0.773	0.723	0.68
x1 = 0.03348	0.982	0.91	0.846	0.79	0.739	0.694
x1 = 0.03766	1.018	0.943	0.877	0.818	0.765	0.718
x1 = 0.04567	1.086	1.005	0.934	0.871	0.814	0.764
x1 = 0.04728	1.111	1.029	0.945	0.881	0.824	0.773
x1 = 0.05348	1.15	1.064	0.988	0.92	0.86	0.807
x1 = 0.05932	1.205	1.113	1.033	0.962	0.898	0.841

CC[n+]1ccn(C)c1.O=S(=O)([N-]S(=O)(=O)C(F)(F)F)C(F)(F)F + c1ccccc1
100 kPa
Details	viscosity [mPa·s]
298.15 K, x2 = 0.135	25.2
298.15 K, x2 = 0.339	15.64
318.15 K, x2 = 0.471	6.8
328.15 K, x2 = 0	13.68
328.15 K, x2 = 0.339	7.26

CO + CC[n+]1ccn(C)c1C.F[B-](F)(F)F
Details	viscosity [mPa·s]
308.15 K, 101.3 kPa, x2 = 0	0.467
